What follows are compounds tested against T1, Ubiquitin carboxyl-terminal hydrolase 19 (Homo sapiens, UniProt O94966) (assay: Inhibition of C-terminal His6-tagged recombinant human USP19 using iso-peptide ubiquitin-Lys-TAMRA as substrate incubated for 30 mins and measured after 90 mins by fluorescent polarization assay).
T1 sequence (O94966 whole entry): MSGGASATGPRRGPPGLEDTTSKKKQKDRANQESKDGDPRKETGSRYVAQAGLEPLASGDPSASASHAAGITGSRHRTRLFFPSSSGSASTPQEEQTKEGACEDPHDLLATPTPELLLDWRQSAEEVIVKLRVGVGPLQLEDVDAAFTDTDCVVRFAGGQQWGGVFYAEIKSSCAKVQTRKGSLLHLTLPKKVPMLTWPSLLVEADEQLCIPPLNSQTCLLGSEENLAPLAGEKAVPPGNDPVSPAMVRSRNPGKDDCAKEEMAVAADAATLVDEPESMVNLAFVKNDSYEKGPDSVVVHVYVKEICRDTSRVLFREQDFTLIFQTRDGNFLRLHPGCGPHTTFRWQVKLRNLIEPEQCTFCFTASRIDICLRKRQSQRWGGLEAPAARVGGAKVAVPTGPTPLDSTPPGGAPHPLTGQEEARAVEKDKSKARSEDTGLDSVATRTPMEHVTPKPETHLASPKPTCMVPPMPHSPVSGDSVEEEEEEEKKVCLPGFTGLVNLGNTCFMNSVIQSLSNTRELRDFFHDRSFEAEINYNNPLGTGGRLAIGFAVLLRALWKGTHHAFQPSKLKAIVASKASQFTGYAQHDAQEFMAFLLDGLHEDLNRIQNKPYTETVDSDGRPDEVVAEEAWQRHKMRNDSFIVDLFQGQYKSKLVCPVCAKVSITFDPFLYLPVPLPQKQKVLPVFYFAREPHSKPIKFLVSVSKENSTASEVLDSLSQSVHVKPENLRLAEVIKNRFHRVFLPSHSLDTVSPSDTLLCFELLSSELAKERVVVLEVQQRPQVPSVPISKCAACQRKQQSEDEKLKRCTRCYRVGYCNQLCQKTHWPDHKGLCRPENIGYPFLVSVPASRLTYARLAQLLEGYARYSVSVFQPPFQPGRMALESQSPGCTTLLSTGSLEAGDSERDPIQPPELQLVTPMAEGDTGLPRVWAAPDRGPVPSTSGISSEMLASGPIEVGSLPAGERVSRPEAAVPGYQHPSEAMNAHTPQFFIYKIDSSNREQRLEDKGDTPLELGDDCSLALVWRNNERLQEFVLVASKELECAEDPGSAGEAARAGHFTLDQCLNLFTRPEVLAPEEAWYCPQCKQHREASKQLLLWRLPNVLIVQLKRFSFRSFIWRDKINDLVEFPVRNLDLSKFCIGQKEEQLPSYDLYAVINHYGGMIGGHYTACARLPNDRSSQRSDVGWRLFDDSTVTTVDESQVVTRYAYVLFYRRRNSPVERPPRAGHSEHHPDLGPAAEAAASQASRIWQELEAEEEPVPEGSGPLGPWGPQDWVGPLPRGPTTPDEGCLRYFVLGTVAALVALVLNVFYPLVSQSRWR

| IC50 | Compound |
| --- | --- |
| < 500 nM | C[C@H](CC(F)(F)F)C(=O)N1CCC(O)(Cn2cc(N=S(C)(C)=O)c(-c3ccccc3)cc2=O)C2(CCCC2)C1 (some centres not stated) |
| < 500 nM | O=C(N1CC[C@@](O)(Cn2cnc(-c3cccc(F)c3)cc2=O)C2(CCCC2)C1)N1CCNC[C@H]1c1cccc(F)c1 |
| < 500 nM | CN(C)C(=O)C1CN(C[C@]2(O)CCN(C(=O)[C@H](CO)CC3CCCCC3)CC2(C)C)C(=O)CC1c1ccccc1 (some centres not stated) |
| < 500 nM | O=C(N1CC[C@@](O)(Cn2cnc(-c3ccc(Cl)cc3)cc2=O)C2(CCCC2)C1)N1CCNC[C@H]1c1ccccc1 |
| < 500 nM | C[C@H](CC1CCCCC1)C(=O)N1CCC(O)(Cn2cc([S+](C)[O-])c(-c3ccccc3)cc2=O)C2(CCCC2)C1 (some centres not stated) |
| < 500 nM | CS(=O)(=O)c1cn(CC2(O)CCN(C(=O)N3CCNC[C@H]3c3ccccc3)CC23CCCC3)c(=O)cc1-c1ccccc1 (some centres not stated) |
| < 500 nM | O=C(N1CC[C@@](O)(Cn2cnc(Cl)cc2=O)C2(CCCC2)C1)N1CCOC[C@H]1c1ccccc1 |
| < 500 nM | CSc1ncc2c(=O)n(CC3(O)CCN(C(=O)[C@H](C)CC4CCCCC4)CC34CCCC4)n(C)c2n1 (some centres not stated) |
| < 500 nM | O=C(N1CC[C@@](O)(Cn2ccc(Cl)cc2=O)C2(CCCC2)C1)N1CCNC[C@H]1c1ccccc1 |
| < 500 nM | O=C(N1CC[C@@](O)(Cn2cnc(-c3ccsc3)cc2=O)C2(CCCC2)C1)N1CCNC[C@H]1c1ccccc1 |
| < 500 nM | CN(C)C(=O)c1cn(CC2(O)CCN(C(=O)N3CCC(C(F)(F)F)C3)CC23CCCC3)c(=O)cc1-c1ccccc1 (configuration not stated) |
| < 500 nM | O=C(N[C@H](c1ccccc1)C(F)(F)F)N1CC[C@@](O)(Cn2cnc(-c3ccccc3)cc2=O)C2(CCCC2)C1 |
| < 500 nM | Cn1nccc1-c1cc(=O)n(C[C@]2(O)CCN(C(=O)N3CCOC[C@H]3c3ccccc3)CC23CCCC3)cn1 |
| < 500 nM | C[C@H](CC1CCCCC1)C(=O)N1CCC(O)(CN2CCN(C(=O)OC(C)(C)C)CC2=O)C2(CCCC2)C1 (some centres not stated) |
| < 500 nM | O=C(N1CC[C@@](O)(Cn2cnc(N3CCC(F)(F)CC3)cc2=O)C2(CCCC2)C1)N1CCNC[C@H]1c1ccccc1 |
| < 500 nM | C[C@H](CC1CCCCC1)C(=O)N1CCC(O)(Cn2cc(S(C)(=N)=O)c(Cl)cc2=O)C2(CCCC2)C1 (some centres not stated) |
| < 500 nM | O=C(N1CCC(O)(Cn2cnc3c(cnn3-c3ccccc3)c2=O)C2(CCCC2)C1)N1CCNC[C@H]1c1ccccc1 (some centres not stated) |
| < 500 nM | O=C(N1CCC(O)(Cn2cnc(-c3ccccc3)cc2=O)C2(CCCCC2)C1)N1CCOC[C@H]1c1ccccc1 (some centres not stated) |
| < 500 nM | CC1(C)CN(C(=O)N2CCOC[C@H]2c2ccccc2)CC[C@@]1(O)Cn1ccc(-c2ccccc2)cc1=O |
| < 500 nM | Cn1cc(-c2cc(=O)n(C[C@]3(O)CCN(C(=O)N4CCOC[C@H]4c4ccccc4)CC34CCCC4)cn2)cn1 |
| < 500 nM | O=C(N1CC[C@@](O)(Cn2cnc(-c3ccccc3)cc2=O)C2(CCOCC2)C1)N1CCNC[C@H]1c1ccccc1 |

| IC50 | Compound |
| --- | --- |
| < 500 nM | O=C(NCc1cccs1)N1CC[C@@](O)(Cn2cnc(-c3ccccc3)cc2=O)C2(CCCC2)C1 |
| < 500 nM | C[C@@]1(c2ccccc2)CNCCN1C(=O)N1CC[C@@](O)(Cn2cnc(-c3ccccc3)cc2=O)C2(CCCC2)C1 |
| < 500 nM | O=C(N1CC[C@@](O)(Cn2cnc(-c3ccccc3C(F)F)cc2=O)C2(CCCC2)C1)N1CCNC[C@H]1c1ccccc1 |
| < 500 nM | C[C@H](CC1CCCCC1)C(=O)N1CCC(O)(Cn2cnc3cc(F)c(F)cc3c2=O)C2(CCCC2)C1 (some centres not stated) |
| < 500 nM | O=C(N1CC[C@@](O)(Cn2ccc(-c3ccccc3F)cc2=O)C2(CCCC2)C1)N1CCNC[C@H]1c1cccc(F)c1 |
| < 500 nM | Cn1cc(-c2ccn(C[C@]3(O)CCN(C(=O)N4CCNC[C@H]4c4ccccc4)CC34CCCC4)c(=O)c2)cn1 |
| < 500 nM | COc1ccccc1-c1cc(=O)n(C[C@]2(O)CCN(C(=O)N3CCNC[C@H]3c3cccc(F)c3)CC23CCCC3)cn1 |
| < 500 nM | CNc1cc(=O)n(C[C@]2(O)CCN(C(=O)N3CCNC[C@H]3c3ccccc3)CC23CCCC3)cn1 |
| < 500 nM | Cn1nccc1-c1ccn(C[C@]2(O)CCN(C(=O)N3CCNC[C@H]3c3ccccc3)CC23CCCC3)c(=O)c1 |
| < 500 nM | Cn1nccc1-c1cc(=O)n(C[C@]2(O)CCN(C(=O)N3CCOC[C@H]3c3ccc(F)cc3)CC23CCCC3)cn1 |
| < 500 nM | C[S+]([O-])c1cn(CC2(O)CCN(C(=O)N3CCNC[C@H]3c3ccccc3)CC23CCCC3)c(=O)cc1-c1ccccc1 (some centres not stated) |
| < 500 nM | O=C(N1CC[C@@](O)(Cn2cnc(-c3cccc(F)c3)cc2=O)C2(CCCC2)C1)N1CCNC[C@H]1c1ccccc1 |
| < 500 nM | Cn1ncc2c(=O)n(CC3(O)CCN(C(=O)N4CCNC[C@H]4c4ccccc4)CC34CCCC4)cnc21 (some centres not stated) |
| < 500 nM | O=C(N1CC[C@@](O)(Cn2cnc(-c3ccccc3F)cc2=O)C2(CCCC2)C1)N1CCNC[C@H]1c1cc(F)ccc1F |
| < 500 nM | COc1cc(=O)n(C[C@]2(O)CCN(C(=O)N3CCNC[C@H]3c3ccccc3)CC23CCCC3)cn1 |
| < 500 nM | Cn1cc(-c2cc(=O)n(C[C@]3(O)CCN(C(=O)N4CCOC[C@H]4c4ccc(F)cc4)CC34CCCC4)cn2)cn1 |
| < 500 nM | C[C@H](CC1CCCCC1)C(=O)N1CCC(O)(CN2CCOCC2=O)C2(CCCC2)C1 (some centres not stated) |
| < 500 nM | O=C1CN(c2ccccc2)CCN1CC1(O)CCN(C(=O)NCc2ccccc2)CC12CCCC2 (configuration not stated) |
| < 500 nM | O=C(N1CCC(O)(Cn2ccc3ccncc3c2=O)C2(CCCC2)C1)N1CCNC[C@H]1c1ccccc1 (some centres not stated) |
| < 500 nM | O=C(N[C@H](c1ccccc1)C(F)(F)F)N1CC[C@@](O)(Cn2ccc(-c3ccccc3)cc2=O)C2(CCCC2)C1 |
| < 500 nM | CSc1cn(CC2(O)CCN(C(=O)[C@H](C)CC3CCCCC3)CC23CCCC3)c(=O)cc1-c1ccccc1 (some centres not stated) |

| IC50 | Compound |
| --- | --- |
| < 500 nM | O=C(N1CC[C@@](O)(Cn2cnc(-c3ccc(OC4CC4)cc3)cc2=O)C2(CCCC2)C1)N1CCNC[C@H]1c1ccccc1 |
| < 500 nM | O=C(N1CC[C@@](O)(Cn2cnc(-c3cccc(F)c3)cc2=O)C2(CCCC2)C1)N1CCNC[C@H]1c1cc(F)ccc1F |
| < 500 nM | O=C(N1CC[C@@](O)(Cn2ccc(-c3ccccc3)cc2=O)C2(CCCC2)C1)N1CCNC[C@H]1c1cc(F)ccc1F |
| < 500 nM | O=C(N1CCC(O)(Cn2ncc(-c3ccccc3)cc2=O)C2(CCCC2)C1)N1CCOC[C@H]1c1ccccc1 (some centres not stated) |
| < 500 nM | O=C(N1CCC(O)(Cn2cnc3cc(F)c(F)cc3c2=O)C2(CCCC2)C1)N1CCNC[C@H]1c1ccccc1 (some centres not stated) |
| < 500 nM | CSc1ncc2c(=O)n(CC3(O)CCN(C(=O)[C@H](C)CC4CCCCC4)CC34CCCC4)cnc2n1 (some centres not stated) |
| < 500 nM | Cc1ccc(-c2cc(=O)n(C[C@]3(O)CCN(C(=O)N4CCNC[C@H]4c4ccccc4)CC34CCCC4)cn2)cc1 |
| < 500 nM | O=C(N1CC[C@@](O)(Cn2cnc(-c3ccccc3)cc2=O)C2(CCCC2)C1)N1CCOC[C@H]1c1ccccc1 |
| < 500 nM | Cn1ccc(-c2cc(=O)n(C[C@]3(O)CCN(C(=O)N4CCNC[C@H]4c4ccccc4)CC34CCCC4)cn2)n1 |
| < 500 nM | COc1ccccc1-c1cc(=O)n(C[C@]2(O)CCN(C(=O)N3CCNC[C@H]3c3ccccc3)CC23CCCC3)cn1 |
| < 500 nM | O=C(NCc1c(F)cccc1F)N1CC[C@@](O)(Cn2cnc(-c3ccccc3)cc2=O)C2(CCCC2)C1 |
| < 500 nM | Cn1nc(C(F)(F)F)cc1-c1cc(=O)n(C[C@]2(O)CCN(C(=O)N3CCNC[C@H]3c3ccccc3)CC23CCCC3)cn1 |
| < 500 nM | COc1ccc(-c2cc(=O)n(C[C@]3(O)CCN(C(=O)N4CCNC[C@H]4c4ccccc4)CC34CCCC4)cn2)cc1 |
| < 500 nM | O=C(N1CC[C@@](O)(Cn2cnc(-c3ccccc3)cc2=O)C2(CCCC2)C1)N1CCNC[C@@H]1c1ccccc1 |
| < 500 nM | Cc1ccccc1-c1cc(=O)n(C[C@]2(O)CCN(C(=O)N3CCNC[C@H]3c3ccccc3)CC23CCCC3)cn1 |
| < 500 nM | O=C1CN(C(=O)N2CC[C@@](O)(Cn3cnc(-c4ccccc4)cc3=O)C3(CCCC3)C2)[C@H](c2ccccc2)CN1 |
| < 500 nM | CN(C)C(=O)c1cn(CC2(O)CCN(C(=O)NCc3ccccc3)CC23CCCC3)c(=O)cc1-c1ccccc1 (configuration not stated) |
| < 500 nM | CSc1cn(CC2(O)CCN(C(=O)[C@H](C)CC3CCCCC3)CC23CCCC3)c(=O)cc1Cl (some centres not stated) |
| ≤ 5000 nM | COc1ccc2c(=O)n(CC3(O)CCN(C(=O)[C@H](C)CC4CCCCC4)CC34CCCC4)ccc2c1 (some centres not stated) |
| < 500 nM | CC1(C)CN(C(=O)N2CCNC[C@H]2c2ccccc2)CC[C@@]1(O)Cn1ccc(-c2ccccc2)cc1=O |
